According to ChEMBL document CHEMBL3352018 (J Med Chem, 2014):
pIC50, pKi: −log10 of the molar value. Active and inactive are the calls of the source. The calls are words filed in the database; no cut-off is given here.

Key:
Assay type in all cases: cell-based
[1] = biological target: T1, Sodium-dependent neutral amino acid transporter B(0)AT2 (Homo sapiens) (UniProt Q9H2J7); test: Inhibition of eGFP-tagged human B0AT2 expressed in HEK293 cells at 5 mM measured within 10 mins by [3H]proline uptake assay
T1 sequence (whole entry): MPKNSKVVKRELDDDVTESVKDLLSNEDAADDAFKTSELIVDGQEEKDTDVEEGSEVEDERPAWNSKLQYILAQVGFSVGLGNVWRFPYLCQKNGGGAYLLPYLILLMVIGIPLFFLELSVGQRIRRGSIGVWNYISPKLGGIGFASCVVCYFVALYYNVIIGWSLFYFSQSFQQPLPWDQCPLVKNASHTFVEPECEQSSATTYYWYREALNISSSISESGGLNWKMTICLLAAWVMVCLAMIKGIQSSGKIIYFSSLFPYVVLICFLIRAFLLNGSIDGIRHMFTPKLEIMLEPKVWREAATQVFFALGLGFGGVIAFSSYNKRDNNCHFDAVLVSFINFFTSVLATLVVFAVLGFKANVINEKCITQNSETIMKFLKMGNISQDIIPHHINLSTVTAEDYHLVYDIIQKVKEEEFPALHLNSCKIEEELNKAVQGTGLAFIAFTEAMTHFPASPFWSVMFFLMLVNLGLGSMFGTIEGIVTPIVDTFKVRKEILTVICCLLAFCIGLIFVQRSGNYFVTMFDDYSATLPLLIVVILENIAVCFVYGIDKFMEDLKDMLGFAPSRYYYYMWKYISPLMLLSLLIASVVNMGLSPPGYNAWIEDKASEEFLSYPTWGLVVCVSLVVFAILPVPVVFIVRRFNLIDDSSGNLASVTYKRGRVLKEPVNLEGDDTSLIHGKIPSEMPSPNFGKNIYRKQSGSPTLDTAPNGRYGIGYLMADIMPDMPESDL

[2] = biological target: T2, Sodium-dependent neutral amino acid transporter B(0)AT2 (Homo sapiens, UniProt Q9H2J7); test: Inhibition of eGFP-tagged human B0AT2 expressed in HEK293 cells measured within 10 mins by [3H]proline uptake assay
T2 sequence (Q9H2J7 whole entry): T1 sequence (whole entry)

[3] = biological target: Histamine H1 receptor (Homo sapiens, UniProt P35367); test: Displacement of [3H]mepyramine from human histamine H1 receptor expressed in Sf9 cells by scintillation counting method
[4] = biological target: T1, Sodium-dependent neutral amino acid transporter B(0)AT2 (Homo sapiens); test: Inhibition of eGFP-tagged human B0AT2 expressed in HEK293 cells assessed as reduction in proline-induced inward current at 100 uM by patch clamp assay
[5] = biological target: T1, Sodium-dependent neutral amino acid transporter B(0)AT2 (Homo sapiens); test: Activation of eGFP-tagged human B0AT2 expressed in HEK293 cells assessed as induction of inward current at 100 uM by patch clamp assay
[6] = biological target: T1, Sodium-dependent neutral amino acid transporter B(0)AT2 (Homo sapiens); test: Reversible inhibition of eGFP-tagged human B0AT2 expressed in HEK293 cells assessed as reduction in proline-induced inward current at 100 uM measured post drug wash out by patch clamp assay

Chain of Histamine H1 receptor (P35367 whole entry): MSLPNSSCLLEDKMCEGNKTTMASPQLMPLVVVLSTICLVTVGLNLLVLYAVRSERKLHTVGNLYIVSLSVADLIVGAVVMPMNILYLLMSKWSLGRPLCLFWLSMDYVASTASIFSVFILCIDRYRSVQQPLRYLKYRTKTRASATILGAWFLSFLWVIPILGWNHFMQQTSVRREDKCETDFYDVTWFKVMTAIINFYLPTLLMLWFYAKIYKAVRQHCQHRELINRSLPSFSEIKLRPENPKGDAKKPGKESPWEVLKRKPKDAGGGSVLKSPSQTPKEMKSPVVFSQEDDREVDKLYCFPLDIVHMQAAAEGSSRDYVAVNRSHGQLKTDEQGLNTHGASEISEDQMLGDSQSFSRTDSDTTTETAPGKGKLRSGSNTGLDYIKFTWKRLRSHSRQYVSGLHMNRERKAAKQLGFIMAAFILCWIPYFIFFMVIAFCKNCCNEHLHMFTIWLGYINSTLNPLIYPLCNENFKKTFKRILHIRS

| Structure (SMILES) | pIC50 [2] | further results |
| --- | --- | --- |
| NC1(C(=O)O)CC2CCC1C2 (stereo unspecified) | – | inhibition [1]: 80% |
| Cc1cncc(CN2CCC(=C3c4ccc(Cl)cc4CCc4cccnc43)CC2)c1 [RUPATADINE] | < 4.40 | – |
| CCNC(=O)N1CCC(=C2c3ccc(Cl)cc3CCc3cccnc32)CC1 | 4.46 | – |
| CCOC(=O)N1CCC(=C2c3ccc(Cl)cc3CCc3ccc(CO)nc32)CC1 | < 4.10 | – |
| CCOC(=O)N1CCC(=C2c3ccc(Cl)cc3CCc3c(CO)ccnc32)CC1 | 4.74 | – |
| O=C(Cc1ccccc1)N1CCC(=C2c3ccc(Cl)cc3CCc3cccnc32)CC1 | 4.79 | – |
| NCCC(=O)N1CCC(=C2c3ccc(Cl)cc3CCc3cccnc32)CC1 | 4.73 | – |
| CC(C)C[C@@H](N)C(=O)N1CCC(=C2c3ccc(Cl)cc3CCc3cccnc32)CC1 | 5.11 | pKi [3]: 5.33 |
| CCCS(=O)(=O)N1CCC(=C2c3ccc(Cl)cc3CCc3cccnc32)CC1 | < 4.10 | – |
| CCOC(=O)N1CCC(=C2c3ccc(Cl)cc3CCc3cc(O)cnc32)CC1 | 4.75 | – |
| Clc1ccc2c(c1)CCc1cccnc1C2=C1CCNCC1 [DESLORATADINE] | 3.76 | – |
| CCSC(=O)N1CCC(=C2c3ccc(Cl)cc3CCc3cccnc32)CC1 | 5.28 | – |
| CCCCCC(=O)N1CCC(=C2c3ccc(Cl)cc3CCc3cccnc32)CC1 | 5.28 | – |
| CCOC(=O)N1CC=C(C2c3ccc(Cl)cc3CCc3cccnc32)CC1 (stereo unspecified) | 4.83 | – |
| COCC(=O)N1CCC(=C2c3ccc(Cl)cc3CCc3cccnc32)CC1 | 4.58 | – |
| CC(C)C(=O)N1CCC(=C2c3ccc(Cl)cc3CCc3cccnc32)CC1 | 4.38 | – |
| CCCC(=O)N1CCC(=C2c3ccc(Cl)cc3CCc3cccnc32)CC1 | 5.31 | pKi [3]: 6.77 |
| O=C(Oc1ccccc1)N1CCC(=C2c3ccc(Cl)cc3CCc3cccnc32)CC1 | < 4.10 | – |
| CC(C)OC(=O)N1CCC(=C2c3ccc(Cl)cc3CCc3cccnc32)CC1 | 4.77 | – |
| C/C=C/C(=O)N1CCC(=C2c3ccc(Cl)cc3CCc3cccnc32)CC1 | 5.30 | pKi [3]: 6.82 |

| Structure (SMILES) | pIC50 [2] | further results |
| --- | --- | --- |
| CCCOC(=O)N1CCC(=C2c3ccc(Cl)cc3CCc3cccnc32)CC1 | 5.34 | – |
| COC(=O)N1CCC(=C2c3ccc(Cl)cc3CCc3cccnc32)CC1 | 4.71 | – |
| NCC(=O)N1CCC(=C2c3ccc(Cl)cc3CCc3cccnc32)CC1 | 4.64 | – |
| C=CCOC(=O)N1CCC(=C2c3ccc(Cl)cc3CCc3cccnc32)CC1 | 5.31 | – |
| CCCCC(=O)N1CCC(=C2c3ccc(Cl)cc3CCc3cccnc32)CC1 | 5.47 | pKi [3]: 6.83 |
| CC(C)[C@@H](N)C(=O)N1CCC(=C2c3ccc(Cl)cc3CCc3cccnc32)CC1 | 4.41 | – |
| CCOC(=O)N1CCC(=C2c3ccc(Cl)cc3CCc3ccc(C(=O)OC)nc32)CC1 | 4.91 | pKi [3]: < 5.00 |
| CC(C)COC(=O)N1CCC(=C2c3ccc(Cl)cc3CCc3cccnc32)CC1 | 5.11 | pKi [3]: 5.89 |
| CN1CCC(=C2c3ccc(Cl)cc3CCc3cccnc32)CC1 | < 4.10 | – |
| O=C(CC1CCCCC1)N1CCC(=C2c3ccc(Cl)cc3CCc3cccnc32)CC1 | 5.24 | pKi [3]: 6.36 |
| CCOC(=O)N1CCC(=C2c3ccc(Cl)cc3CCc3c(C#N)ccnc32)CC1 | < 4.10 | – |
| CCOC(=O)N1CCC(=C2c3ccc(Cl)cc3CCc3cc(OC)cnc32)CC1 | 5.35 | pKi [3]: 5.71 |
| CCC(=O)N1CCC(=C2c3ccc(Cl)cc3CCc3cccnc32)CC1 | 4.44 | – |
| CC(C)(C)OC(=O)N1CCC(=C2c3ccc(Cl)cc3CCc3cccnc32)CC1 | < 4.10 | – |
| CC(=O)N1CCC(=C2c3ccc(Cl)cc3CCc3cccnc32)CC1 [SCH-37370] | 4.26 | – |
| CCOC(=O)N1CCC(=C2c3ccc(Cl)cc3CCc3ccc(C#N)nc32)CC1 | < 4.10 | – |
| CC(C)CC(=O)N1CCC(=C2c3ccc(Cl)cc3CCc3cccnc32)CC1 | 4.97 | pKi [3]: 6.54 |
| CCOC(=O)N1CCC(=C2c3ccc(Cl)cc3CCc3cccnc32)CC1 [LORATADINE] | 5.40 | inhibition [4]: Active; Activity [5]: inactive; inhibition [6]: Active |
| O=C(OCc1ccccc1)N1CCC(=C2c3ccc(Cl)cc3CCc3cccnc32)CC1 | < 4.10 | – |
